The values below come from ChEMBL document CHEMBL4420079, “Methylamine derivatives as lysysl oxidase inhibitors for the treatment of cancer” (2017).

The structures appear in SMILES notation. Active and inactive are the calls of the source. No cut-off for these calls is given here.

Experiment [1] deals with T1, Protein-lysine 6-oxidase (Homo sapiens) (UniProt P28300).
T1 sequence (whole entry): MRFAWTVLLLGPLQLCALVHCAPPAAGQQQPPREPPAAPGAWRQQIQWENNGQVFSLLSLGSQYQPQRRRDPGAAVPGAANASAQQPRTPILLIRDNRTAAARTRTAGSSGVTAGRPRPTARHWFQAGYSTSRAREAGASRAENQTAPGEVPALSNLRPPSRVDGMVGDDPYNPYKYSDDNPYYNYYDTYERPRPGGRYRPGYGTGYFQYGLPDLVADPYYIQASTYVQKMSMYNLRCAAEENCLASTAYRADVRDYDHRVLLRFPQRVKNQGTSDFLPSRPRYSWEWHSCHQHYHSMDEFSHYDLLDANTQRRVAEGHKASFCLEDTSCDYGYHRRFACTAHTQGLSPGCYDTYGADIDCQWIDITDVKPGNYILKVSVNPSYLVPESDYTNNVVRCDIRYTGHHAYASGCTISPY
Particulars: MDA-MB-231, 1 mM.

Experiment [2] can be described thus: Inhibition of pig skin LOX incubated for 45 mins by Amplex red dye based and HRP coupled assay. Details: species or system Sus scrofa.

Consider `N#CCCN`, for which the inhibition entry in experiment [1] is “Active”. Turning to `NCc1ncc(S(=O)(=O)c2ccc3ccccc3c2)s1`, inhibition in experiment [2] was half-maximal at 1.4 µM (IC50).
